Assay results from patent publication US7351742B2, “Sulfonamide derivatives for the treatment of diseases” (Pfizer Inc., priority 2004, dated 2008).

Each compound was assayed against T1, human β2 adrenergic receptor (Homo sapiens, UniProt P07550) (assay: β2 cAMP EC50 in CHO cells recombinantly expressing the human β2 adrenergic receptor (cAMP-Flashplate)). Settings: CHOhβ2 cells, 1 hour incubation.
T1 construct: expressed in transfected cells; host or cells: CHO (Chinese Hamster Ovary) cells, CHOhβ2
T1 sequence (P07550 whole entry): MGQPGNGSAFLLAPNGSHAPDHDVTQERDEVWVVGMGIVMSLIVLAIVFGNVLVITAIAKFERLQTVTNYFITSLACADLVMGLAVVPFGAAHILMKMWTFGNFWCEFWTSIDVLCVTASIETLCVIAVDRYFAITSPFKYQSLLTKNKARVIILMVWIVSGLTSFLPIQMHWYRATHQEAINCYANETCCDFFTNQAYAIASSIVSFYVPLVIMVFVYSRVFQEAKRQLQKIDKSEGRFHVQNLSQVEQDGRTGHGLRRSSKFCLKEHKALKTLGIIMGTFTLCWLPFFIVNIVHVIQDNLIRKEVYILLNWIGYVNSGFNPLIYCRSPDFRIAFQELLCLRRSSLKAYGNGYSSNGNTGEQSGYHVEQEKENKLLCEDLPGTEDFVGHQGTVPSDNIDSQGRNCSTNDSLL
Type: cell-based
Procedure: According to another alternative, the agonist potency for the β2 receptor of the compounds of the formula (1) may also be determined by the measure of the concentration of compound according to the present invention required to produce half maximal effect (EC50) for the β2 receptor.
10 mM/100% DMSO (dimethylsulfoxide) stock of compound is diluted to required top dose in 4% DMSO. This top dose is used to construct a 10-point semi-log dilution curve, all in 4% DMSO. Isoprenaline (Sigma, 1-5627) was used as a standard in every experiment and for control wells on each plate. Data was expressed as % Isoprenaline response.
CHO (Chinese Hamster Ovary) cells recombinantly expressing the human β2 adrenergic receptor (from Kobilka et al., PNAS 84: 46-50, 1987 and Bouvier et al., Mol Pharmacol 33: 133-139 1988 CHOhβ2) were grown in Dulbeccos MEM/NUT MIX F12 (Gibco, 21331-020) supplemented with 10% foetal bovine serum (Sigma, F4135, Lot 90K8404 Exp 09/04), 2 mM glutamine (Sigma, G7513), 500 μg/ml geneticin (Sigma, G7034) and 10 μg/ml puromycin (Sigma, P8833). Cells were seeded to give about 90% confluency for testing.
25 μl/well each dose of compound was transferred into a cAMP-Flashplate® (NEN, SMP004B), with […] as basal controls and 100 nM Isoprenaline as max controls. This was diluted 1:2 by the addition of 25 μl/well PBS. Cells were trypsinised (0.25% Sigma, T4049), washed with PBS (Gibco, 14040-174) and resuspended in stimulation buffer (NEN, SMP004B) to give 1×10^6 cells/ml CHOhB2. Compounds were incubated with 50 μl/well cells for 1 hour. Cells were then lysed by the addition of 100 μl/well detection buffer (NEN, SMP004B) containing 0.18 μCi/ml ^125I-cAMP (NEN, NEX-130) and plates were incubated at room temperature for a further 2 hours. The amount of ^125I-cAMP bound to the Flashplate® was quantified using a Topcount NXT (Packard), normal counting efficiency for 1 minute. Dose-response data was expressed as % Isoprenaline activity and fitted using a four parameter sigmoid fit.
Work on CC(C)(Cc1cccc(CC(=O)NCc2ccccc2)c1)NC[C@H](O)c1ccc(O)c(NS(C)(=O)=O)c1 [Example 1, N-Benzyl-2-(3-{2-[((2R)-2-hydroxy-2-{4-hydroxy-3-[(methylsulfonyl)amino]phenyl}ethyl)amino]-2-methylpropyl}phenyl)acetamide] yielded an EC50 of 20 pM.
COc1ccc(CNC(=O)Cc2cccc(CC(C)(C)NC[C@H](O)c3ccc(O)c(NS(C)(=O)=O)c3)c2)cc1 [Example 2, 2-(3-{2-[((2R)-2-hydroxy-2-{4-hydroxy-3-[(methylsulfonyl)amino]phenyl}ethyl)amino]-2-methylpropyl}phenyl)-N-(4-methoxybenzyl)acetamide] showed an EC50 of 30 pM.
Compound Cc1ccc(CNC(=O)Cc2cccc(CC(C)(C)NC[C@H](O)c3ccc(O)c(NS(C)(=O)=O)c3)c2)cc1 [Example 6, 2-(3-{2-[((2R)-2-hydroxy-2-{4-hydroxy-3-[(methylsulfonyl)amino]phenyl}ethyl)amino]-2-methylpropyl}phenyl)-N-(4-methylbenzyl)acetamide] has an EC50 of 70 pM.
Compound CC(C)(Cc1cccc(CC(=O)NCc2ccc(Cl)cc2)c1)NC[C@H](O)c1ccc(O)c(NS(C)(=O)=O)c1 [Example 12, N-(4-Chlorobenzyl)-2-(3-{2-[((2R)-2-hydroxy-2-{4-hydroxy-3-[(methylsulfonyl)amino]phenyl}ethyl)amino]-2-methylpropyl}phenyl)acetamide] has an EC50 of 50 pM.
For CC(C)(Cc1cccc(CC(=O)NCc2ccc(F)cc2)c1)NC[C@H](O)c1ccc(O)c(NS(C)(=O)=O)c1 [Example 15, N-(4-Fluorobenzyl)-2-(3-{2-[((2R)-2-hydroxy-2-{4-hydroxy-3-[(methylsulfonyl)amino]phenyl}ethyl)amino]-2-methylpropyl}phenyl)acetamide], the EC50 was 30 pM.
In the case of CC(C)(Cc1cccc(CC(=O)NCc2ccc(Cl)c(Cl)c2)c1)NC[C@H](O)c1ccc(O)c(NS(C)(=O)=O)c1 [Example 17, N-(3,4-Dichlorobenzyl)-2-(3-{2-[((2R)-2-hydroxy-2-{4-hydroxy-3-[(methylsulfonyl)amino]phenyl}ethyl)amino]-2-methylpropyl}phenyl)acetamide], the EC50 is reported as 80 pM.
Compound CC(C)(Cc1cccc(CC(=O)NCCc2ccccc2)c1)NC[C@H](O)c1ccc(O)c(NS(C)(=O)=O)c1 [Example 25, 2-(3-{2-[((2R)-2-Hydroxy-2-{4-hydroxy-3-[(methylsulfonyl)amino]phenyl}ethyl)amino]-2-methylpropyl}phenyl)-N-(2-phenylethyl)acetamide] has an EC50 of 80 pM.
For CC(C)(Cc1cccc(CC(=O)NCCCc2ccccc2)c1)NC[C@H](O)c1ccc(O)c(NS(C)(=O)=O)c1 [Example 26, 2-(3-{2-[((2R)-2-Hydroxy-2-{4-hydroxy-3-[(methylsulfonyl)amino]phenyl}ethyl)amino]-2-methylpropyl}phenyl)-N-(3-phenylpropyl)acetamide], the EC50 was 90 pM.
With CSc1ccccc1CNC(=O)Cc1cccc(CC(C)(C)NC[C@H](O)c2ccc(O)c(NS(C)(=O)=O)c2)c1 [Example 31, 2-(3-{2-[((2R)-2-Hydroxy-2-{4-hydroxy-3-[(methylsulfonyl)amino]phenyl}ethyl)amino]-2-methylpropyl}phenyl)-N-[2-(methylthio)benzyl]acetamide] the EC50 was 40 pM.
Work on Cc1ccc(CNC(=O)Cc2cccc(C[C@@H](C)NC[C@H](O)c3ccc(O)c(NS(C)(=O)=O)c3)c2)cc1C [Example 38, N-(3,4-Dimethylbenzyl)-2-(3-{(2R)-2-[((2R)-2-hydroxy-2-{4-hydroxy-3-[(methylsulfonyl)amino]phenyl}ethyl)amino]propyl}phenyl)acetamide] yielded an EC50 of 60 pM.
With C[C@H](Cc1cccc(CC(=O)NCc2ccc(Cl)c(Cl)c2)c1)NC[C@H](O)c1ccc(O)c(NS(C)(=O)=O)c1 [Example 39, N-(3,4-Dichlorobenzyl)-2-(3-{(2R)-2-[((2R)-2-hydroxy-2-{4-hydroxy-3-[(methylsulfonyl)amino]phenyl}ethyl)amino]propyl}phenyl)acetamide] the EC50 was 50 pM.
For C[C@H](Cc1cccc(CC(=O)NCc2ccc(C(F)(F)F)cc2)c1)NC[C@H](O)c1ccc(O)c(NS(C)(=O)=O)c1 [Example 45, 2-(3-{(2R)-2-[((2R)-2-Hydroxy-2-{4-hydroxy-3-[(methylsulfonyl)amino]phenyl}ethyl)amino]propyl}phenyl)-N-[4-(trifluoromethyl)benzyl]acetamide], the EC50 was 60 pM.
C[C@H](Cc1cccc(CC(=O)NCc2ccccn2)c1)NC[C@H](O)c1ccc(O)c(NS(C)(=O)=O)c1 [Example 60, 2-(3-{(2R)-2-[((2R)-2-Hydroxy-2-{4-hydroxy-3-[(methylsulfonyl)amino]phenyl}ethyl)amino]propyl}phenyl)-N-(pyridin-2-ylmethyl)acetamide] showed an EC50 of 20 pM.
In the case of CC(C)(Cc1ccc(CC(=O)NCc2cc(C(F)(F)F)ccc2Cl)cc1)NC[C@H](O)c1ccc(O)c(NS(C)(=O)=O)c1 [Example 67, N-[2-Chloro-5-(trifluoromethyl)benzyl]-2-(4-{2-[((2R)-2-hydroxy-2-{4-hydroxy-3-[(methylsulfonyl)amino]phenyl}ethyl)amino]-2-methylpropyl}phenyl)acetamide], the EC50 is reported as 80 pM.
Compound C[C@H](Cc1ccc(CC(=O)NCc2ccccc2)cc1)NC[C@H](O)c1ccc(O)c(NS(C)(=O)=O)c1 [Example 76, N-Benzyl-2-(4-{(2R)-2-[((2R)-2-hydroxy-2-{4-hydroxy-3-[(methylsulfonyl)amino]phenyl}ethyl)amino]propyl}phenyl)acetamide] has an EC50 of 20 pM.
